Experimental data from ChEMBL document CHEMBL4831545, “Hormesis Effect of Berberine against Klebsiella pneumoniae Is Mediated by Up-Regulation of the Efflux Pump KmrA” (J Nat Prod, 2021).
Active and inactive are the calls of the source. The calls are words filed in the database; no cut-off is given here.

What was measured:
[1] = system: Enterobacter cloacae; assay: Hormesis activity against overnight compound-treated Enterobacter cloacae assessed as increase in antibiotic MIC by measuring hygromycinMIC at 3 ug/ml incubated for 12 hrs by OD600 based analysis (reference value: 25 ug/ml); assay type: ADME, organism-based; settings: in vivo, dose 3 µg/ml
[2] = system: Klebsiella pneumoniae; assay: Hormesis activity against Klebsiella pneumonia assessed as inhibition of bacterial growth by measuring shortened logarithmic growth phase at 25 to 50 ug/ml measured after 24 hrs by OD600 based analysis; assay type: functional, organism-based; settings: dose 25-50 µg/ml
[3] = system: Acinetobacter baumannii; assay: Hormesis activity against overnight-compound treated Acinetobacter baumannii assessed as increase in antibiotic MIC by measuring meropenem MIC at 3 ug/ml incubated for 12 hrs by OD600 based analysis (reference value: 0.625 ug/ml); assay type: ADME, organism-based; settings: in vivo, dose 3 µg/ml
[4] = system: Klebsiella pneumoniae; assay: Hormesis activity against overnight compound-treated Klebsiella pneumoniae assessed as increase in antibiotic MIC by measuring cefotaxime MIC at 3 ug/ml incubated for 12 hrs by OD600 based analysis (reference value: 0.39625 ug/ml); assay type: ADME, organism-based; settings: in vivo, dose 3 µg/ml
[5] = system: Acinetobacter baumannii; assay: Hormesis activity against overnight-compound treated Acinetobacter baumannii assessed as increase in antibiotic MIC by measuring ampicillin MIC at 3 ug/ml incubated for 12 hrs by OD600 based analysis (reference value: 100 ug/ml); assay type: ADME, organism-based; settings: in vivo, dose 3 µg/ml
[6] = system: Enterobacter cloacae; assay: Hormesis activity against Enterobacter cloacae assessed as promotion of bacterial growth up to 25 ug/ml measured for 24 hrs in presence of efflux pump inhibitor, CCCP and 8 ug/ml tetracycline by OD600 based analysis; assay type: ADME, organism-based; settings: in vivo, dose <=25 µg/ml
[7] = system: Enterobacter cloacae; assay: Hormesis activity against overnight compound-treated Enterobacter cloacae assessed as increase in antibiotic MIC by measuring chloramphenicol MIC at 3 ug/ml incubated for 12 hrs by OD600 based analysis (reference value: 3.125 ug/ml); assay type: ADME, organism-based; settings: in vivo, dose 3 µg/ml
[8] = system: Enterobacter cloacae; assay: Hormesis activity against overnight compound-treated Enterobacter cloacae assessed as increase in antibiotic MIC by measuring rifampicin MIC at 3 ug/ml incubated for 12 hrs by OD600 based analysis (reference value: 25 ug/ml); assay type: ADME, organism-based; settings: in vivo, dose 3 µg/ml
[9] = system: Acinetobacter baumannii; assay: Hormesis activity against overnight-compound treated Acinetobacter baumannii assessed as increase in antibiotic MIC by measuring chloramphenicol MIC at 3 ug/ml incubated for 12 hrs by OD600 based analysis (reference value: 6.25 ug/ml); assay type: ADME, organism-based; settings: in vivo, dose 3 µg/ml
[10] = system: Klebsiella pneumoniae; assay: Hormesis activity against Klebsiella pneumoniae assessed as promotion of bacterial growth at 3 to 6 ug/ml measured for 24 hrs in presence of efflux pump inhibitor, CCCP by OD600 based analysis; assay type: ADME, organism-based; settings: in vivo, dose 3-6 µg/ml
[11] = system: Klebsiella pneumoniae; assay: Hormesis activity against overnight compound-treated Klebsiella pneumoniae assessed as increase in antibiotic MIC by measuring tetracycline MIC at 3 ug/ml incubated for 12 hrs by OD600 based analysis (reference value: 6 ug/ml); assay type: ADME, organism-based; settings: in vivo, dose 3 µg/ml
[12] = system: Klebsiella pneumoniae; assay: Hormesis activity against Klebsiella pneumoniae assessed as increase in antibiotic MIC by measuring azithromycin MIC at 3 ug/ml incubated for 12 hrs by OD600 based analysis (reference value: 1.5625 ug/ml); assay type: ADME, organism-based; settings: in vivo, dose 3 µg/ml
[13] = system: Acinetobacter baumannii; assay: Hormesis activity against Acinetobacter baumannii assessed as increase in antibiotic MIC by measuring chloramphenicol MIC at 3 ug/ml incubated for 12 hrs by OD600 based analysis (reference value: 6.25 ug/ml); assay type: ADME, organism-based; settings: in vivo, dose 3 µg/ml
[14] = system: Klebsiella pneumoniae; assay: Hormesis activity against Klebsiella pneumoniae deficient in KmrA gene expression assessed as increase in antibiotic MIC by measuring tetracycline MIC at 3 ug/ml incubated for 12 hrs by OD600 based analysis (reference value: 6 ug/ml); assay type: ADME, organism-based; settings: in vivo, dose 3 µg/ml
[15] = system: Enterobacter cloacae; assay: Hormesis activity against Enterobacter cloacae assessed as increase in antibiotic MIC by measuring ampicillin MIC at 3 ug/ml incubated for 12 hrs by OD600 based analysis (reference value: 25 ug/ml); assay type: ADME, organism-based; settings: in vivo, dose 3 µg/ml
[16] = system: Enterobacter cloacae; assay: Hormesis activity against Enterobacter cloacae assessed as increase in antibiotic MIC by measuring meropenem MIC at 3 ug/ml incubated for 12 hrs by OD600 based analysis (reference value: 0.1953 ug/ml); assay type: ADME, organism-based; settings: in vivo, dose 3 µg/ml
[17] = system: Klebsiella pneumoniae; assay: Hormesis activity against Klebsiella pneumoniae assessed as increase in antibiotic MIC by measuring meropenem MIC at 3 ug/ml incubated for 12 hrs by OD600 based analysis (reference value: 0.39625 ug/ml); assay type: ADME, organism-based; settings: in vivo, dose 3 µg/ml
[18] = system: Klebsiella pneumoniae; assay: Hormesis activity against overnight compound-treated Klebsiella pneumoniae deficient in KmrA gene expression assessed as increase in antibiotic MIC by measuring azithromycin MIC at 3 ug/ml incubated for 12 hrs by OD600 based analysis (reference value: 0.78125 ug/ml); assay type: ADME, organism-based; settings: in vivo, dose 3 µg/ml
[19] = system: Acinetobacter baumannii; assay: Hormesis activity against Acinetobacter baumannii assessed as promotion of bacterial growth by measuring prolonged logarithmic growth phase at 3 to 50 ug/ml measured for 24 hrs by OD600 based analysis; assay type: organism-based; settings: in vivo, dose 3-50 µg/ml
[20] = system: Acinetobacter baumannii; assay: Hormesis activity against overnight-compound treated Acinetobacter baumannii assessed as increase in antibiotic MIC by measuring cefotaxime MIC at 3 ug/ml incubated for 12 hrs by OD600 based analysis (reference value: 12.5 ug/ml); assay type: ADME, organism-based; settings: in vivo, dose 3 µg/ml
[21] = system: Acinetobacter baumannii; assay: Hormesis activity against Acinetobacter baumannii assessed as increase in antibiotic MIC by measuring azithromycin MIC at 3 ug/ml incubated for 12 hrs by OD600 based analysis (reference value: 200 ug/ml); assay type: ADME, organism-based; settings: in vivo, dose 3 µg/ml
[22] = system: Klebsiella pneumoniae; assay: Hormesis activity against Klebsiella pneumoniae assessed as increase in antibiotic MIC by measuring ciprofloxacin MIC at 3 ug/ml incubated for 12 hrs by OD600 based analysis (reference value: 0.0390625 ug/ml); assay type: ADME, organism-based; settings: in vivo, dose 3 µg/ml
[23] = system: Klebsiella pneumoniae; assay: Hormesis activity against Klebsiella pneumonia assessed as promotion of bacterial growth by measuring increase in final OD600 at 3 ug/ml measured for 24 hrs in presence of 2 ug/ml tetracycline by OD600 based analysis; assay type: organism-based; settings: in vivo, at 3 µg/mL
[24] = system: Klebsiella pneumoniae; assay: Hormesis activity against overnight compound-treated Klebsiella pneumoniae deficient in KmrA gene expression assessed as increase in antibiotic MIC by measuring streptomycin MIC at 3 ug/ml incubated for 12 hrs by OD600 based analysis (reference value: 0.78125 ug/ml); assay type: ADME, organism-based; settings: in vivo, dose 3 µg/ml
[25] = system: Enterobacter cloacae; assay: Hormesis activity against Enterobacter cloacae assessed as increase in antibiotic MIC by measuring tetracycline MIC at 3 ug/ml incubated for 12 hrs by OD600 based analysis (reference value: 8 ug/ml); assay type: ADME, organism-based; settings: in vivo, dose 3 µg/ml
[26] = system: Klebsiella pneumoniae; assay: Hormesis activity against Klebsiella pneumoniae assessed as increase in antibiotic MIC by measuring tetracycline MIC at 3 ug/ml incubated for 12 hrs by OD600 based analysis (reference value: 6 ug/ml); assay type: ADME, organism-based; settings: in vivo, dose 3 µg/ml
[27] = system: Klebsiella pneumoniae; assay: Hormesis activity against Klebsiella pneumoniae assessed as increase in antibiotic MIC by measuring atreonamMIC at 3 ug/ml incubated for 12 hrs by OD600 based analysis (reference value: 1.5625 ug/ml); assay type: ADME, organism-based; settings: in vivo, dose 3 µg/ml
[28] = system: Klebsiella pneumoniae; assay: Hormesis activity against Klebsiella pneumoniae deficient in KmrA gene expression assessed as increase in antibiotic MIC by measuring streptomycin MIC at 3 ug/ml incubated for 12 hrs by OD600 based analysis (reference value: 0.78125 ug/ml); assay type: ADME, organism-based; settings: in vivo, dose 3 µg/ml
[29] = system: Klebsiella pneumoniae; assay: Hormesis activity against overnight compound-treated Klebsiella pneumoniae assessed as increase in antibiotic MIC by measuring ciprofloxacin MIC at 3 ug/ml incubated for 12 hrs by OD600 based analysis (reference value: 0.0390625 ug/ml); assay type: ADME, organism-based; settings: in vivo, dose 3 µg/ml

COc1ccc2cc3[n+](cc2c1OC)CCc1cc2c(cc1-3)OCO2 [BERBERINE]
MIC [1]: 25 µg/mL
Activity [2]: Active
MIC [3]: 0.625 µg/mL
MIC [4]: 0.3962 µg/mL
MIC [5]: 200 µg/mL
Activity [6]: Non-Toxic
MIC [7]: 3.125 µg/mL
MIC [8]: 50 µg/mL
MIC [9]: 6.25 µg/mL
Activity [10]: Non-Toxic
MIC [11]: 12 µg/mL
MIC [12]: 3.125 µg/mL
MIC [13]: 6.25 µg/mL
MIC [14]: 6 µg/mL
MIC [15]: 25 µg/mL
MIC [16]: 0.1953 µg/mL
MIC [17]: 0.3962 µg/mL
MIC [18]: 1.5625 µg/mL
Activity [19]: Toxic
MIC [20]: 12.5 µg/mL
MIC [21]: 200 µg/mL
MIC [22]: 0.07812 µg/mL
Activity [23]: 23%
MIC [24]: 1.5625 µg/mL
MIC [25]: 8 µg/mL
MIC [26]: 6 µg/mL
MIC [27]: 1.5625 µg/mL
MIC [28]: 0.7812 µg/mL
MIC [29]: 0.1562 µg/mL
